The text below walks through data of patent US11999742B2, “Substituted pyrrolo[1,2-b]pyridazines as anthelmintics” (BOEHRINGER INGELHEIM VETMEDICA GMBH, priority 2021, dated 2024).

A value given as a limit tells only on which side of the number the result lay.

The test system of assay [1] is Microfilaria of Dirofilaria immitis. Briefly: Motility of Dirofilaria immitis microfilariae in microtiter plate, 3 days, dose response. In kind it is cell-based. The note with it: 72 h, read-out: EC50, motility of D. immitis microfilaria, three days at 37° C., 5% CO2, vs DMSO control.
In assay [2] the test system is L4 stage larvae of Dirofilaria immitis. Briefly: Motility of L4 stage Dirofilaria immitis larvae, 3 days, dose response. Format: cell-based. The settings on record: 72 h, read-out: EC50, motility of L4 stage D. immitis, three days at 37° C., 5% CO2, vs DMSO control.

Regarding `Cc1cc2c(C(C)(C)C)c(C(=O)N(C)[C@H]3CCOc4ccccc43)cnn2c1-c1cc(F)cc(Cl)c1Cl` [Compound A543, 4-tert-butyl-7-(2,3-dichloro-5-fluorophenyl)-N-[(4S)-3,4-dihydro-2H-1-benzopyran-4-yl]-N,6-dimethylpyrrolo[1,2-b]pyridazine-3-carboxamide], the EC50 in assay [1] and in assay [2] was 1000 to 10000 nM in each case.

Regarding `Cc1cc2c(N3CC(C)(C)C3)c(C(=O)N[C@H]3CCOc4ccccc43)cnn2c1-c1cc(F)cc(Cl)c1Cl` [Compound A564], the EC50 in assay [1] and in assay [2] was 1000 to 10000 nM each time.

As for `Cc1cc2c(C(C)(C)C)c(C(=O)N[C@H]3CCCc4cnn(C(C)C)c43)cnn2c1-c1cc(F)cc(Cl)c1Cl` [Compound A546], the EC50 (as a rule, the concentration giving half of the maximal effect) in assay [2] was in the range of 1000 to 10000 nM.

For `CC1(F)CN(c2c(C(=O)N[C@H]3CCOc4ccccc43)cnn3c(-c4cc(F)cc(Cl)c4Cl)c(Cl)cc23)C1` [Compound A514], the EC50 in assay [1] lay within 1000 to 10000 nM.

On to `Cc1cc2c(C(C)(C)C)c(C(=O)N[C@H]3CCOc4ccccc43)cnn2c1-c1cccc(Cl)c1Cl` [Compound A519], for which the EC50 in assay [1] and in assay [2] was below 10 nM throughout.

Take `Cc1cc2c(C(C)(C)C)c(C(=O)NC3CCCc4sccc43)cnn2c1-c1cc(F)cc(Cl)c1Cl` (stereo not drawn) [Compound A537]: the EC50 in assay [1] was below 10 nM; in assay [2], 10 to 100 nM.

In the case of `Cc1cc2c(C(C)(C)C)c(C(=O)N[C@H]3CCOc4ccccc43)cnn2c1-c1cc(Cl)cc(Cl)c1` [Compound A464], the concentration giving a half-maximal response (EC50) in assay [1] and in assay [2] was below 10 nM each time.

In the case of `Cc1cc2c(C(C)(C)C)c(C(=O)N[C@H]3CCc4cnccc43)cnn2c1-c1cc(F)cc(Cl)c1Cl` [Compound A556], the concentration giving a half-maximal response (EC50) in assay [1] and in assay [2] was 1000 to 10000 nM in each case.

In the case of `Cc1cc2c(N3CCOCC3)c(C(=O)N[C@H]3CCOc4ccccc43)cnn2c1-c1cc(F)cc(F)c1F` [Compound A491], the half-maximal effective concentration (EC50) in assay [1] and in assay [2] was below 10 nM throughout.

As for `Cc1cc2c(N3CC(C)(F)C3)c(C(=O)N[C@H]3CCOc4ccccc43)cnn2c1-c1cc(Cl)cc(Cl)c1Cl` [Compound A508], in assay [1], the half-maximal effective concentration (EC50) was in the range of 1000 to 10000 nM.

With `Cc1cc2c(C(C)(C)C)c(C(=O)N[C@H]3CCOc4ccccc43)cnn2c1N1CCOCC1` [Compound A529], the figures for the EC50 in assay [1] and in assay [2] were 1000 to 10000 nM and 100 to 1000 nM, respectively.

For `Cc1cc2c(C(C)(C)C)c(C(=O)N[C@H]3CCCc4cc(F)ccc43)cnn2c1-c1cc(F)cc(Cl)c1Cl` [Compound A538], the EC50 in assay [1] and in assay [2] was 1000 to 10000 nM throughout.

On to `Cc1cc2c(N3CC(C)(F)C3)c(C(=O)N[C@H]3CCOc4ccccc43)cnn2c1-c1cc(F)cc(Cl)c1Cl` [Compound A562], for which the 50% effective concentration (EC50) in assay [1] and in assay [2] was 1000 to 10000 nM each time.

As to `CC(C)c1c(C(=O)N[C@H]2CCOc3ccccc32)cnn2c(-c3cc(Cl)cc(Cl)c3)ccc12` [Compound A470], the EC50 in assay [1] lay in the range of 1000 to 10000 nM.

Take `Cc1cc2c(C(C)(C)C)c(C(=O)N[C@@H]3CCc4sc(Br)nc43)cnn2c1-c1cc(F)cc(Cl)c1Cl` [Compound A536b]: the EC50 in assay [1] and in assay [2] was 1000 to 10000 nM throughout.

Take `Cc1cc2c(C(C)(C)C)c(C(=O)N[C@H]3CCOc4ccncc43)cnn2c1-c1cc(F)cc(Cl)c1Cl` [Compound A569]: in assay [1], the half-maximal effective concentration (EC50) is below 10 nM.

In the case of `CC(C)c1c(C(=O)N[C@H]2CCOc3ccccc32)cnn2c(-c3cc(Cl)cc(Cl)c3)cc(Cl)c12` [Compound A467], the EC50 in assay [1] and in assay [2] was 100 to 1000 nM in each case.

On to `CC(C)c1c(C(=O)N[C@H]2CCOc3ccccc32)cnn2c(-c3cc(Cl)cc(Cl)c3)cc(C(F)(F)F)c12` [Compound A468], for which the EC50 in assay [1] was in the range of 1000 to 10000 nM.

Turning to `CC1(F)CN(c2c(C(=O)N[C@H]3CCOc4ccccc43)cnn3c(-c4cc(Cl)cc(Cl)c4Cl)c(Cl)cc23)C1` [Compound A509], in assay [1], the concentration for a half-maximal effect (EC50) fell in the range of 100 to 1000 nM.

Consider `Cc1cc2c(C(C)(C)C)c(C(=O)N[C@H]3COc4ccccc43)cnn2c1-c1cc(F)cc(Cl)c1Cl` [Compound A545], for which the EC50 in assay [2] is 1000 to 10000 nM.

As to `Cc1cc2c(C(C)C)c(C(=O)Nc3cccc4ccccc34)cnn2c1-c1cc(Cl)cc(Cl)c1` [Compound A521], the EC50 in assay [2] is 100 to 1000 nM.
